Results as given in the supplement of paper PMC10933113.
± gives the uncertainty stated by the source.

Key:
THP-1 = assay: efficacy of IL-8 induction relative to DMSO (% activity); higher = stronger induction; conditions: exposure time: 18 h
[1] = test system: KeratinoSens (HaCaT ARE-luciferase) cells; assay: efficacy of ARE luciferase induction relative to DMSO (% activity over DMSO); higher = stronger induction; conditions: exposure time: 24 h
[2] = test system: cysteine peptide Ac-RFAACAA-COOH; assay: efficacy of cysteine peptide change (negative = depletion) (% activity); higher = less depletion; conditions: incubation time: 24 h
[3] = test system: lysine peptide Ac-RFAAKAA-COOH; assay: efficacy of lysine peptide change (negative = depletion) (% activity); higher = less depletion; conditions: incubation time: 24 h
[4] = test system: KeratinoSens (HaCaT ARE-luciferase) cells; assay: cytotoxicity AC50 (CellTiter-Fluor viability); higher = less cytotoxic; conditions: exposure time: 24 h

Row | Structure (SMILES) | efficacy of IL-8 induction (THP-1) | efficacy of ARE luciferase induction [1] | efficacy of cysteine peptide change [2] | efficacy of lysine peptide change [3] | cytotoxicity AC50 [4]
1 | CCC(C)(CC)c1cc(NC(=O)c2c(OC)cccc2OC)on1 [Isoxaben] | 2.21 ± 15 | 20.2 ± 5.5 | 21.1 ± 6.2 | 47.2 ± 16 | 
2 | c1ccc(-c2ccccn2)nc1 [2,2'-Dipyridyl] | 0 | 45.2 ± 39 | -15.1 ± 3.5 | -0.86 ± 12 | 
3 | CCCCCCCCCCCC(=O)NCCCN(C)C [N-[3-(Dimethylamino)propyl]dodecanamide] | 36.3 ± 13 | 4.32 ± 44 | 18 ± 19 | 168 ± 11 | 42.1 ± 9.5 µM
4 | COP(=S)(OC)Oc1ccc(SC)c(C)c1 [Fenthion] | -2.61 ± 4.5 | 17.4 ± 5.5 | 0.74 ± 16 | 2.04 ± 28 | 
5 | CCCCCCC(C)O (stereo not given) [2-Octanol] | 0 | 0 | 0 | -5.58 ± 9.7 | 
6 | CC(C)(C)OC(=O)c1ccc(O)cc1 [tert-Butyl 4-hydroxybenzoate] | 0 | 28.1 ± 9.8 | -19.7 ± 9.4 | 58.9 ± 23 | 
7 | CC(C)(C)C(=O)CCl [1-Chloro-3,3-dimethyl-butan-2-one] | 5.09 ± 4.6 | 26.8 ± 9.2 | -43.1 ± 7.6 | -4.45 ± 16 | 
8 | CC1=C(C(=O)Nc2ccccc2)S(=O)(=O)CCO1 [Oxycarboxin] | 0 | 52.3 ± 47 |  |  | 32.9 ± 2.2 µM
9 | COP(=O)(O)OP(=O)(O)OC [Dimethyl dihydrogen diphosphate] | 0 | 22.1 ± 30 | 0 | 4.84 ± 8.4 | 
10 | CCOP(=S)(OCC)Oc1cnc2ccccc2n1 [Quinalphos] | 7.62 ± 6.8 | 37.5 ± 24 | 97.5 ± 350 | 10.6 ± 9.3 | 
11 | CCNc1nc(NC(C)(C)C)nc(SC)n1 [Terbutryn] | 4.42 ± 7.7 | 8.44 ± 7.8 | 21.4 ± 20 | 139 ± 22 | 
12 | CCCCCCCCCCCCO [1-Dodecanol] | 0 | 9.49 ± 13 | 0 | -9.21 ± 17 | 
13 | Clc1ccc(C(Cn2ccnc2)OCc2ccc(Sc3ccccc3)cc2)c(Cl)c1 (stereo not given) [Fenticonazole nitrate] | 3.64 ± 6.3 | 51.9 ± 25 | -8.26 ± 7.2 | 1.96 ± 25 | 
14 | CCOC(=O)NC(=S)Nc1ccccc1NC(=S)NC(=O)OCC [Thiophanate] | 3.6 ± 6.2 | 98.8 ± 100 | -5.09 ± 4.7 | 34.5 ± 10 | 
15 | O=C(O)CCCCCCCCC(=O)O [Decanedioic acid] | 0.59 ± 6 | 5.23 ± 4.5 | 54.5 | 3.76 ± 20 | 
16 | COc1ccc(O)c(C(C)(C)C)c1 [2-tert-Butyl-4-methoxyphenol] | 1.96 ± 3.4 | 4.91 ± 25 | -37.3 ± 14 | 5.8 ± 5 | 
17 | CO[C@@]12[C@H](COC(N)=O)C3=C(C(=O)C(C)=C(N)C3=O)N1C[C@@H]1N[C@@H]12 [Mitomycin C] | 12.9 ± 11 | 17.2 ± 24 | -37 ± 6.3 | 0 | 
18 | CC[C@H]1CC[C@H](NCc2cc3c(cc2OC)[C@H]2C[C@H]2C(=O)N3C)[C@H](c2ccccc2)N1 | 18.9 ± 3.4 | 82.8 ± 33 |  |  | 26.4 ± 4.7 µM
19 | CC(C)CC(NC(=O)OCC1c2ccccc2-c2ccccc21)C(=O)O (stereo in doubt) [N-(9-Fluorenylmethoxycarbonyl)-L-leucine] | 6.39 ± 11 | 65 ± 53 | -6.72 ± 6 | 0.13 ± 15 | 
